Measurements taken from patent US20060188879A1, “Crh responsive genes in cns” (Janssen Pharmaceutica N.V., priority 2002, published 2006).
“Also recorded” adds a separate entry of the source.

Key:
Format in all cases: in vivo, mouse
[1] = test system: neurotensin receptor 1 (Ntsr1); test: Quantitative RT-PCR of Ntsr1 mRNA in brain areas of treated WT and CRF-OE mice; conditions: 10 mg/kg, 2 times per day for 5 days, 16 hrs after last treatment, hippocampus
Procedure: (§1) Animal housing and treatment—Male transgenic CRF overexpressing C57BL/6J mice (CRF-OE or TG) and their wild-type littermates (WT) were maintained in an specific pathogen free facility that meets all national and European requirements for animal care. Mice were housed individually 4 weeks before the start of the experiment in a climate-controlled animal colony with a 12 h dark-light cycle (light on 7:00 EST) with free access to food and water. Prior to treatment 3 month old mice were randomized over three groups each comprising 4 wild-type and 4 transgenic animals. One group received no treatment, a second group received vehicle injection 5 days, 2 times per day (10% cyclodextran (CD), pH4) and a third group received 10 mg/kg of a CRH-R1 specific antagonist R121919 in 10% CD following the same regime. 16 hrs after last treatment animals were sacrificed for dissection of brain areas and subsequent isolation of RNA. […]
Quantitative RT-PCR—Microarray data were confirmed using real time PCR analysis. […] Quantitative PCR was performed on a ABIPrism 7700 cycler (Applied Biosystems) using a Taqman PCR kit. […] A linear regression line calculated from the standard curves allowed the determination of transcript levels in RNA samples from the different treatment groups at each brain area.

[2] = test system: neurotensin receptor 2 (Ntsr2); test: Quantitative RT-PCR / microarray of Ntsr2 mRNA in brain areas of treated WT and CRF-OE mice; conditions: 10 mg/kg, 2 times per day for 5 days, 16 hrs after last treatment
Procedure: as §1
Microarray hybridization—cRNA was prepared as follows. […] Subsequently arrays were scanned with a HP-Laserscanner and data were analyzed with the Microarray Suite Software (Affymetrix). […] Quality of the experiment was assessed based on the percentages present calls (see table).
Quantitative RT-PCR—Microarray data were confirmed using real time PCR analysis. […] Quantitative PCR was performed on a ABIPrism 7700 cycler (Applied Biosystems) using a Taqman PCR kit. […]

all NTS-sites (Nts1-3) = test: [125I]NT binding, quantitative autoradiography on brain sections of treated mice; conditions: subchronic administration
Procedure: FIG. 6: [^125I]NT binding (0.1 nM, 30 min, RT) to all NTS-sites determined via quantitative autoradiography on frozen glass-mounted brain tissue sections. Data are represented as the average IOD±SEM of three animals determined on at least three different Bregma sections each.
Animal housing and treatment—Male transgenic CRF overexpressing C57BL/6J mice (CRF-OE or TG) and their wild-type littermates (WT) were maintained in an specific pathogen free facility that meets all national and European requirements for animal care. Mice were housed individually 4 weeks before the start of the experiment in a climate-controlled animal colony with a 12 h dark-light cycle (light on 7:00 EST) with free access to food and water. Prior to treatment 3 month old mice were randomized over three groups each comprising 4 wild-type and 4 transgenic animals. One group received no treatment, a second group received vehicle injection 5 days, 2 times per day (10% cyclodextran (CD), pH4) and a third group received 10 mg/kg of a CRH-R1 specific antagonist R121919 in 10% CD following the same regime. 16 hrs after last treatment animals were sacrificed for dissection of brain areas and subsequent isolation of RNA.
Autoradiography—[^125 I]Neurotensin binding and film radiographs on brains of adult male transgenic C57BU6J mice and their wild-type littermates, was performed as described previously by Moyse et al. (12). […] Incubating additional sections in the presence of 1 μM native neurotensin assessed the non-specific staining. […] On each section structures were delineated interactively and pixel gray levels were measured in the outlined areas. The pixel gray levels were converted to radioactivity per mg of tissue using the co-exposed ^125I-standards and averaged over the measured area. Data were analyzed statistically by a two-way ANOVA and concomitant Bonferroni's Post-hoc test using SPSS 11.0 software.

[3] = test system: gene expression profiles in brain areas of CRH overexpressing mice; test: Microarray gene expression profiles of brain areas (spectral map analysis, SAM)
Procedure: Animal housing and treatment—Male transgenic CRF overexpressing C57BL/6J mice (CRF-OE or TG) and their wild-type littermates (WT) were maintained in an specific pathogen free facility that meets all national and European requirements for animal care. Mice were housed individually 4 weeks before the start of the experiment in a climate-controlled animal colony with a 12 h dark-light cycle (light on 7:00 EST) with free access to food and water. Prior to treatment 3 month old mice were randomized over three groups each comprising 4 wild-type and 4 transgenic animals. […]
Microarray hybridization—cRNA was prepared as follows. […] Subsequently arrays were scanned with a HP-Laserscanner and data were analyzed with the Microarray Suite Software (Affymetrix). […] Quality of the experiment was assessed based on the percentages present calls (see table). […]
Basically this alignment sets the average intensity of one array to the average measured this normalization compensates for array to array variations in hybridization, washing and staining, ultimately allowing a reasonable comparison between arrays. After normalization, data were analyzed using weighted spectral mapping analysis (SMA) (7). […]

CCCN(CCC)c1cc(C)nc2c(-c3cnc(N(C)C)cc3C)c(C)nn12 [R121919]
Upregulation of Ntsr1 mRNA expression in vehicle treated animals (repeated injection stress) [1]: abolished; also recorded: counteracted
Upregulation of Ntsr2 mRNA expression in vehicle treated animals (repeated injection stress) [2]: abolished; also recorded: counteracted
Downregulation of [125I]NT binding at total NT binding level (all NTS-sites (Nts1-3); CRF-OE mice): counteracted the downregulation
[125I]NT binding capacity compared to vehicle treated animals (all NTS-sites (Nts1-3); stratum radiatum bordering CA1-CA2 region, both WT and CRF-OE animals, p=0.057): upward trend
Level of [125I]NT binding in treated CRF-OE animals versus untreated animals (all NTS-sites (Nts1-3); stratum radiatum, CRF-OE mice): equaled the level measured in untreated WT-animals; also recorded: equaled that in untreated animals
Changes in gene expression profile of CRH overexpressing (Tg) versus WT animals ([3]; 5 day treatment, all studied brain areas, exemplified by pituitary spectral map, listed as CRH-R1 antagonist): not affected (or only to a limited degree); also recorded: does not lead to a general ‘normalization’
Effect on expression levels at the pituitary level ([3]; transgenic animals, pituitary): some effect of the compound is measured
